≈ marks a conversion by molar mass, not a printed value. Where two headings read alike, the source gives them in different places.
Tests used:
[1] = Dynamic solubility test (two-step dissolution, SGF then FaSSIF) of solid dispersions; format: physicochemical; settings: 37° C.
Experimental: 20 mg each of the solid dispersion products from formulations 1 to 9 in Example 4 was taken and added with 3 mL of SGF (target concentration of API: […]). The mixture was stirred at 37° C. and 500 rpm for 0.25 hours and 0.5 hours, respectively, followed by sampling. 3 mL of 2× FaSSIF was then added to adjust the solution pH to approximately 6.5. The mixture was stirred for another 0.25 hours, 0.5 hours, 1 hour, and 1.5 hours, respectively, followed by sampling. The collected samples were analyzed by UPLC, and the final solution pH was measured.

[2] = Solubilization test of compound 1 with surfactants in FaSSIF; format: physicochemical; settings: for solubility at 0.5 h / solubility at 1 h / solubility at 2 h / solubility at 4 h: 37° C., read-out: Concentration of API in vehicle
Experimental: 50 mg of compound 1 was weighed into 5 mL of FaSSIF medium containing 5 mg of different surfactants (target concentration of API (compound 1):10 mg/mL). The mixture was shaken at 500 rpm and 37° C. 0.5 mL each of the suspension samples was taken at 0.5 hours, 1 hour, 2 hours, and 4 hours, respectively, centrifuged at 14,000 rpm for 5 minutes, and the supernatant was diluted and analyzed by HPLC.

[3] = FaSSIF (pH 6.5) with 5 mg Cremophor EL, 50 mg API in 5 mL
[4] = FaSSIF (pH 6.5) with 5 mg Cremophor RH40, 50 mg API in 5 mL
[5] = FaSSIF (pH 6.5) with 5 mg SLS, 50 mg API in 5 mL
[6] = FaSSIF (pH 6.5) with 5 mg Solutol HS15, 50 mg API in 5 mL
[7] = FaSSIF (pH 6.5) with 5 mg VE-TPGS, 50 mg API in 5 mL
[8] = FaSSIF (pH 6.5), no surfactant, 50 mg API in 5 mL
[9] = fassif with poloxamer 188, FaSSIF (pH 6.5) with 5 mg Poloxamer 188, 50 mg API in 5 mL
[10] = fassif with poloxamer 407, FaSSIF (pH 6.5) with 5 mg Poloxamer 407, 50 mg API in 5 mL
[11] = fassif with tween 80, FaSSIF (pH 6.5) with 5 mg Tween 80, 50 mg API in 5 mL

For NS(=O)(=O)c1cc(NC(=O)Cc2ccccc2Cl)cc2nn(C(F)F)cc12 [compound 1], the “Solubility of API in vehicle” value ([1]; Step 1 (SGF, pH 1.6), 0.25 h, target API 2 mg/mL) was 33.7 µg/mL, the “Solubility of API in vehicle” value ([1]; Step 1 (SGF, pH 1.6), 0.5 h, target API 2 mg/mL) was 65.1 µg/mL and the “Solubility of API in vehicle” value ([1]; Step 2 (FaSSIF, pH 6.5), 0.75 h) was 13.7 µg/mL. The “Solubility of API in vehicle” value ([1]; Step 2 (FaSSIF, pH 6.5), 1.0 h) was 33.5 µg/mL, the “Solubility of API in vehicle” value ([1]; Step 2 (FaSSIF, pH 6.5), 2.0 h) was 18.0 µg/mL and the “Solubility of API in vehicle” value ([1]; Step 2 (FaSSIF, pH 6.5), […]) was 15.0 µg/mL. The solubility at 0.5 h [2, 3] was 1570 µg/mL (≈ 3800 µM), the solubility at 1 h [2, 3] was 1600 µg/mL (≈ 3870 µM) and the solubility at 2 h [2, 3] was 1540 µg/mL (≈ 3710 µM). For the same compound, the solubility at 4 h [2, 3] was 1510 µg/mL (≈ 3640 µM), the solubility at 0.5 h [2, 4] was 1580 µg/mL (≈ 3820 µM) and the solubility at 1 h [2, 4] was 1600 µg/mL (≈ 3870 µM). It also gave a solubility at 2 h [2, 4] of 1570 µg/mL (≈ 3780 µM), a solubility at 4 h [2, 4] of 1540 µg/mL (≈ 3710 µM) and a solubility at 0.5 h [2, 5] of 614 µg/mL (≈ 1480 µM). For the same compound, the solubility at 1 h [2, 5] was 622 µg/mL (≈ 1500 µM), the solubility at 2 h [2, 5] was 639 µg/mL (≈ 1540 µM) and the solubility at 4 h [2, 5] was 652 µg/mL (≈ 1570 µM). It also gave a solubility at 0.5 h [2, 6] of 1470 µg/mL (≈ 3530 µM), a solubility at 1 h [2, 6] of 1500 µg/mL (≈ 3620 µM) and a solubility at 2 h [2, 6] of 1480 µg/mL (≈ 3570 µM). The solubility at 4 h [2, 6] was 1460 µg/mL (≈ 3510 µM), the solubility at 0.5 h [2, 7] was 2110 µg/mL (≈ 5100 µM) and the solubility at 1 h [2, 7] was 2120 µg/mL (≈ 5120 µM). It also gave a solubility at 2 h [2, 7] of 2090 µg/mL (≈ 5040 µM), a solubility at 4 h [2, 7] of 2080 µg/mL (≈ 5010 µM) and a solubility at 0.5 h [2, 8] of 33.9 µg/mL (≈ 81.7 µM). For the same compound, the solubility at 1 h [2, 8] was 22.9 µg/mL (≈ 55.2 µM), the solubility at 2 h [2, 8] was 15.2 µg/mL (≈ 36.6 µM) and the solubility at 4 h [2, 8] was 14.9 µg/mL (≈ 35.9 µM). For the same compound, the “Solubility of compound 1 with surfactants” value ([2]; FaSSIF with SLS, Cremophor EL, Cremophor RH40, VE-TPGS, Tween 80, Poloxamer 407, or Solutol HS15, in words) was “significantly improved”, the solubility at 0.5 h [2, 9] was 116 µg/mL (≈ 279 µM) and the solubility at 1 h [2, 9] was 123 µg/mL (≈ 297 µM). The solubility at 2 h [2, 9] was 104 µg/mL (≈ 251 µM), the solubility at 4 h [2, 9] was 93.9 µg/mL (≈ 226 µM) and the solubility at 0.5 h [2, 10] was 838 µg/mL (≈ 2020 µM). The solubility at 1 h [2, 10] was 861 µg/mL (≈ 2070 µM), the solubility at 2 h [2, 10] was 842 µg/mL (≈ 2030 µM) and the solubility at 4 h [2, 10] was 797 µg/mL (≈ 1920 µM). For the same compound, the solubility at 0.5 h [2, 11] was 899 µg/mL (≈ 2170 µM), the solubility at 1 h [2, 11] was 893 µg/mL (≈ 2150 µM) and the solubility at 2 h [2, 11] was 888 µg/mL (≈ 2140 µM). The solubility at 4 h [2, 11] was 887 µg/mL (≈ 2140 µM).

— patent US20260284010A1, “SOLID DISPERSION OF P2X4 INHIBITOR, AND PREPARATION METHOD THEREFOR AND USE THEREOF” (priority 2023, published 2026)
